In ChEMBL document CHEMBL1909046, “DrugMatrix in vitro pharmacology data”:

How the values were obtained:
[1] = biological target: T1, Alpha-2A adrenergic receptor (Homo sapiens, UniProt P08913); format: cell membranes, Sf9, Membrane; conditions: sf9; further: in other assays of this panel Not Active means under 50% inhibition at 10 µM
T1 sequence (P08913 whole entry): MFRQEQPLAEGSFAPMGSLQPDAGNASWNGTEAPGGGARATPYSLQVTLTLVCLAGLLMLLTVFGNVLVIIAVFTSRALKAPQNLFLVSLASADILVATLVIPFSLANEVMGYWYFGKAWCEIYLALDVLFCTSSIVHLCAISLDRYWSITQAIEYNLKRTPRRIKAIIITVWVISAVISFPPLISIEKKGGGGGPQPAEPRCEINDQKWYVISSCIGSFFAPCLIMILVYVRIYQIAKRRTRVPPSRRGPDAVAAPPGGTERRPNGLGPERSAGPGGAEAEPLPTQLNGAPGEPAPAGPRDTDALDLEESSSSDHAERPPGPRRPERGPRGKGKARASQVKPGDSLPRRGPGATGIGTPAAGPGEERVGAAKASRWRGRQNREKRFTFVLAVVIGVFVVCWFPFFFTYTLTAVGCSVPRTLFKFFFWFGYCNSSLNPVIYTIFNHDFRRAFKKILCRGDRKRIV

[2] = biological target: Aldo-keto reductase family 1 member B1 (Rattus norvegicus, UniProt P07943); format: tissue-based, Lens of camera-type eye;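 further: inhibition of aldose reductase enzyme activity, measured with DL-glyceraldehyde as the substrate; in other assays of this panel Not Active means under 50% inhibition at 10 µM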
[3] = DRUGMATRIX: Calcium Channel Type L, Dihydropyridine radioligand binding (ligand: [3H] Nitrendipine); format: cell membranes, Rattus norvegicus, Wistar, Cerebral cortex, Membrane; conditions: Not Active = under 50% inhibition at 10 µM
[4] = biological target: T2, 5-hydroxytryptamine receptor 2C (Homo sapiens, UniProt P28335); test: DRUGMATRIX: Serotonin (5-Hydroxytryptamine) 5-HT2C radioligand binding (ligand: [3H] Mesulergine); format: cell membranes, CHO-K1, Membrane; conditions: cho-k1; Not Active = under 50% inhibition at 10 µM
T2 sequence (P28335 whole entry): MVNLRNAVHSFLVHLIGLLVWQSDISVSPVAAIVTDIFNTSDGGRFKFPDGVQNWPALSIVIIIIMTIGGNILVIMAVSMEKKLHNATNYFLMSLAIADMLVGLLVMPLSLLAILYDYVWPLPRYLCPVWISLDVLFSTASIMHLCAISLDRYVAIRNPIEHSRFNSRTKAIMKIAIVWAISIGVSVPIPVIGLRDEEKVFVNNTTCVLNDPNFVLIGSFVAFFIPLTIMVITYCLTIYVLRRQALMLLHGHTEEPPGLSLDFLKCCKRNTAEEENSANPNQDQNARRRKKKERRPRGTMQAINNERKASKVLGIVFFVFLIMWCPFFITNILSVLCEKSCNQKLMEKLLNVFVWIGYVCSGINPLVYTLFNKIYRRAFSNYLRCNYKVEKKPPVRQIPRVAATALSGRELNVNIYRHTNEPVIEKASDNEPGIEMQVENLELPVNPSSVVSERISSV

[5] = biological target: 5-hydroxytryptamine receptor 6 (Homo sapiens, UniProt P50406); format: cell membranes, HeLa, Membrane; further: in other assays of this panel Not Active means under 50% inhibition at 10 µM
[6] = biological target: T3, 3-hydroxy-3-methylglutaryl-coenzyme A reductase (Homo sapiens, UniProt P04035); set-up: species or system Escherichia coli;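 further: enzyme inhibition assay of HMG-CoA reductase using radiolabeled [14C]HMG-CoA as substrate; in other assays of this panel Not Active means under 50% inhibition at 10 µM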
T3 sequence (P04035 whole entry): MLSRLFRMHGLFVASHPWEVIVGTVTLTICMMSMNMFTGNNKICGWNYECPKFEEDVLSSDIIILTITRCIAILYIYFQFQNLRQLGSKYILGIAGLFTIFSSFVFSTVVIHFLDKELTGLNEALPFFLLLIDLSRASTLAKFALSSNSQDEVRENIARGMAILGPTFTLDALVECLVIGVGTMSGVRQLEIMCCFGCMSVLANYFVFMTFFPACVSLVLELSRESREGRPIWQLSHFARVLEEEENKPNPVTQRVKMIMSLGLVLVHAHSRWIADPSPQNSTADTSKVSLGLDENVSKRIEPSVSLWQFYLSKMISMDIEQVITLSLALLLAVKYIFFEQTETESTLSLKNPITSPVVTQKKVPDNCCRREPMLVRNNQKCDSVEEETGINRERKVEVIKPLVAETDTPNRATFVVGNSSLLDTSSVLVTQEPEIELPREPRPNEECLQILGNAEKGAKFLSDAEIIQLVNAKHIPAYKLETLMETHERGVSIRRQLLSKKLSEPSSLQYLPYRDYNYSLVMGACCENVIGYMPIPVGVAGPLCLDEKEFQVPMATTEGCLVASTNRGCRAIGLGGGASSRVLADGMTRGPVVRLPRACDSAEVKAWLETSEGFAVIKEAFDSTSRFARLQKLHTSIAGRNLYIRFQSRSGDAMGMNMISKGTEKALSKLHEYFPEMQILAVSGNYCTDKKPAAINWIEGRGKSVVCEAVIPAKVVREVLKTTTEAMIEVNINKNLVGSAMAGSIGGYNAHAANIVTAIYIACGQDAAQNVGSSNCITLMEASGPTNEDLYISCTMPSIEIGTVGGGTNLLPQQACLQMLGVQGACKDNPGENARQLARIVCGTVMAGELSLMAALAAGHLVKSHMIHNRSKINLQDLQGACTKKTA

Melanocortin receptor 4 = Melanocortin receptor 4 (Homo sapiens, UniProt P32245); format: cell membranes, Membrane; conditions: hek293; further: in other assays of this panel Not Active means under 50% inhibition at 10 µM
[7] = biological target: Tyrosine-protein kinase Fyn (Homo sapiens, UniProt P06241); test: biochemical; format: cell-based, Insect cells; conditions: insect cells
Cytochrome P450 2C19 = Cytochrome P450 2C19 (Homo sapiens, UniProt P33261); conditions: bti-tn-5b1-4; further: in other assays of this panel Not Active means under 50% inhibition at 10 µM
Cytochrome P450 2E1 = Cytochrome P450 2E1 (Homo sapiens, UniProt P05181); conditions: bti-tn-5b1-4; further: in other assays of this panel Not Active means under 50% inhibition at 10 µM
[8] = biological target: T4, Muscarinic acetylcholine receptor M2 (Homo sapiens, UniProt P08172); format: cell membranes, CHO-K1, Membrane; further: in other assays of this panel Not Active means under 50% inhibition at 10 µM
T4 sequence (P08172 whole entry): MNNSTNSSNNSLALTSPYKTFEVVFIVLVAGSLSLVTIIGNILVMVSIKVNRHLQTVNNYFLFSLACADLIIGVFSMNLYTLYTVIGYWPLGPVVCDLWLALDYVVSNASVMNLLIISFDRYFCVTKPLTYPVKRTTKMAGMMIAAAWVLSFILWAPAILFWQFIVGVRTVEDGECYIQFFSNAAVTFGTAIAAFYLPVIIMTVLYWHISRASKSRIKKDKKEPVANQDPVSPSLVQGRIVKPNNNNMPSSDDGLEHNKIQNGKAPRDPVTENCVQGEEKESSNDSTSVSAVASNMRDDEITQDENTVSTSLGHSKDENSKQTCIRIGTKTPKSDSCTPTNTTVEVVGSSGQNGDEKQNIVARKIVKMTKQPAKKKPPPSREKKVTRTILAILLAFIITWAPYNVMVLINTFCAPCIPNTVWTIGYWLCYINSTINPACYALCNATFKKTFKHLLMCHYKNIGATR

Sequence of Tyrosine-protein kinase Fyn (P06241 whole entry): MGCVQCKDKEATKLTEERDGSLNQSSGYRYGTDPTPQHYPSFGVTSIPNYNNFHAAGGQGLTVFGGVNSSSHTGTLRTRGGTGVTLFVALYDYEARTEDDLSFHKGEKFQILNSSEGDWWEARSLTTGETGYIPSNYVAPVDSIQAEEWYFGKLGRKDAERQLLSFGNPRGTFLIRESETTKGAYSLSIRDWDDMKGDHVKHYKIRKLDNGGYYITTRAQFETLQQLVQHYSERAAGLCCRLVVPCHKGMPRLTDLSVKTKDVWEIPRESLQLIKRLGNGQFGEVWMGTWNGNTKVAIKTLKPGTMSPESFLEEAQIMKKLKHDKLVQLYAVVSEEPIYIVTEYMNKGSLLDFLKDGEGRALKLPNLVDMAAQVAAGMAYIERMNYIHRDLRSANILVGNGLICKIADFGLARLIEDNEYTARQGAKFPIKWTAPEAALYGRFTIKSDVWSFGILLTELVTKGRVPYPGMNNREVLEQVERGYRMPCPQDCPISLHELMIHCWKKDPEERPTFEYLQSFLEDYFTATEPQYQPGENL
Sequence of Cytochrome P450 2E1 (P05181 whole entry): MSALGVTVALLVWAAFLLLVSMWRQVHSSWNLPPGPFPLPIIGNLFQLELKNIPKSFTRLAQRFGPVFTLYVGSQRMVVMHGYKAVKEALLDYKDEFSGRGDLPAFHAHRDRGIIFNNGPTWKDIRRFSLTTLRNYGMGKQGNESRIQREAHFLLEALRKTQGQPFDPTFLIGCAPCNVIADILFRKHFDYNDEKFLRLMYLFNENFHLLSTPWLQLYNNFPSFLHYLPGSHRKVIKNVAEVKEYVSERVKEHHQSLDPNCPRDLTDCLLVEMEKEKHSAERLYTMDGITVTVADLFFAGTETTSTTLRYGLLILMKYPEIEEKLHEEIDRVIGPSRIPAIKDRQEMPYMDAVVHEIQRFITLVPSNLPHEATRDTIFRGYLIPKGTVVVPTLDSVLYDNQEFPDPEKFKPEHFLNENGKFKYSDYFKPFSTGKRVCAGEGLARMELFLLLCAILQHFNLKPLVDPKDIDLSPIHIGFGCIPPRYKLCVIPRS
Sequence of 5-hydroxytryptamine receptor 6 (P50406 whole entry): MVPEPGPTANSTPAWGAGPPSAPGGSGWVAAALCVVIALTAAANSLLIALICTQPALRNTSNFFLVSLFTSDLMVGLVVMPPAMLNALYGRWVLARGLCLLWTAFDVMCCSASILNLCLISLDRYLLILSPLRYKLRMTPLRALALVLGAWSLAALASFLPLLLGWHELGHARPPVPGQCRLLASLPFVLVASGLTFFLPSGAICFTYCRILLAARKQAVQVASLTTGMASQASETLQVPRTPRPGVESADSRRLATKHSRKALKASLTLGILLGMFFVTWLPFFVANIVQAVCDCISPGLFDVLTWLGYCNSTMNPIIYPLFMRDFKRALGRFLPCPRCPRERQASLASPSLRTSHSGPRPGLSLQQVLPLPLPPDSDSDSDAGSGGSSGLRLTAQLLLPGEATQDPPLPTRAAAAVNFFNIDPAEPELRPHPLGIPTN
Sequence of Cytochrome P450 2C19 (P33261 whole entry): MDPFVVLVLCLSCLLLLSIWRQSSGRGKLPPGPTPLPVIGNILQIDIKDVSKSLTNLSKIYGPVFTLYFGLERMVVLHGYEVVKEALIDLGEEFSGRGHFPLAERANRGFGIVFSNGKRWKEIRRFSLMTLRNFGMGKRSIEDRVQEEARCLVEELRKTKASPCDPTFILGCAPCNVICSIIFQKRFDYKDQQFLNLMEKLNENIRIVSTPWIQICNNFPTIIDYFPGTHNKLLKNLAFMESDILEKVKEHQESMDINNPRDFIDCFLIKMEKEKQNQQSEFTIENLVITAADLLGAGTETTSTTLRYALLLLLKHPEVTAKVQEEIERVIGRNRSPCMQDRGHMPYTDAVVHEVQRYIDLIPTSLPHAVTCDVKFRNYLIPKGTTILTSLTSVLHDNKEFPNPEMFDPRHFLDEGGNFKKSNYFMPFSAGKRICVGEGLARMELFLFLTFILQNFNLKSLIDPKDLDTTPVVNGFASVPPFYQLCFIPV
Sequence of Melanocortin receptor 4 (P32245 whole entry): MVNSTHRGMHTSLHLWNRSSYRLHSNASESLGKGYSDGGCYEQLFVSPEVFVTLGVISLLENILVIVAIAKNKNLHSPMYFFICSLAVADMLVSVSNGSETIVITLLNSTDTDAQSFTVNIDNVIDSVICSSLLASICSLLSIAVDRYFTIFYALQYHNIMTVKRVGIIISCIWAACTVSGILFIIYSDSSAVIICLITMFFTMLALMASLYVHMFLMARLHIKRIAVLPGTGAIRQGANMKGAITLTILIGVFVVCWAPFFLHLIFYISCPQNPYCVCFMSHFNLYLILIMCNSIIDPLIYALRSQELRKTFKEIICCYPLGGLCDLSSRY

Row | SMILES | IC50 [1] | IC50 [2] | IC50 [3] | Ki [3] | IC50 [4] | IC50 ([5]; hela) | IC50 [6] | IC50 (Melanocortin receptor 4) | IC50 [7] | IC50 (Cytochrome P450 2C19) | Ki (Cytochrome P450 2C19) | IC50 (Cytochrome P450 2E1) | Ki (Cytochrome P450 2E1) | IC50 ([8]; cho-k1) | IC50 ([5]; read-out: IC50) [nM] | Ki ([5]; read-out: Ki) [nM] | IC50 ([8]; read-out: IC50) [nM] | Ki ([8]; read-out: Ki) [nM] | IC50 ([3]; read-out: IC50) [nM] | Ki ([3]; read-out: Ki) [nM]
1 | CC[N+](CC)(CC)CCOc1cccc(OCC[N+](CC)(CC)CC)c1OCC[N+](CC)(CC)CC.[I-].[I-].[I-] [GALLAMINE TRIETHIODIDE] | Not Active | Not Active | Not Active | Not Active | Not Active | Not Active | Not Active | Not Active | Not Active | Not Active | Not Active | Not Active | Not Active |  |  |  |  |  |  | 
2 | O=P1(NCCCl)OCCCN1CCCl (centres undefined) [IFOSFAMIDE] | Not Active | Not Active | Not Active | Not Active | Not Active | Not Active | Not Active | Not Active | Not Active |  |  |  |  | Not Active |  |  |  |  |  | 
3 | O=C1OCCN1/N=C/c1ccc([N+](=O)[O-])o1 [FURAZOLIDONE] | Not Active | Not Active | Not Active | Not Active | Not Active | Not Active | Not Active | Not Active | Not Active |  |  |  |  | Not Active |  |  |  |  |  | 
4 | CC(/C=C1\SC(=S)N(CC(=O)O)C1=O)=C\c1ccccc1 | Not Active |  | Not Active | Not Active | Not Active | Not Active | Not Active | Not Active | Not Active | Not Active | Not Active | Not Active | Not Active | Not Active |  |  |  |  |  | 
5 | CNCCC=C1c2ccccc2CCc2ccccc21 [NORTRIPTYLINE] |  | Not Active | Not Active | Not Active |  |  | Not Active | Not Active | Not Active |  |  | Not Active | Not Active |  | 554 | 257 | 347 | 123 |  | 
6 | Fc1ccc([C@@H]2CCNC[C@H]2COc2ccc3c(c2)OCO3)cc1 [PAROXETINE] | Not Active | Not Active |  |  | Not Active | Not Active | Not Active | Not Active | Not Active | Not Active | Not Active | Not Active | Not Active |  |  |  |  |  | 1480 | 949
7 | CC(C)NC[C@H](O)COc1cccc2[nH]ccc12 | Not Active | Not Active | Not Active | Not Active | Not Active | Not Active | Not Active | Not Active | Not Active |  |  |  |  | Not Active |  |  |  |  |  | 
8 | CN(C)CCCC1(c2ccc(F)cc2)OCc2cc(C#N)ccc21 (centres undefined) [CITALOPRAM] | Not Active | Not Active | Not Active | Not Active |  | Not Active | Not Active | Not Active | Not Active | Not Active | Not Active | Not Active | Not Active | Not Active |  |  |  |  |  | 
9 | NCC(=O)O [GLYCINE] | Not Active | Not Active | Not Active | Not Active | Not Active | Not Active | Not Active | Not Active | Not Active |  |  |  |  | Not Active |  |  |  |  |  | 
